Assay results as given in paper PMC10564737, “Structure-based design of a phosphotyrosine-masked covalent ligand targeting the E3 ligase SOCS2” (Nature Communications, 2023).
“And” between values parts separate entries of the source, which are not always exact repeats. Identical values can stand only once. “Also recorded” adds a separate entry of the source.

Key:
SOCS2 (SBC2) = molecular target: T1, SOCS2 (SBC2) (Homo sapiens, UniProt O14508); assay: Intact ESI-MS of recombinant protein, covalent modification; assay type: biochemical; settings: SOCS2 WT + MN551 (1:1, 40 µM)
T1 construct: SOCS2 (amino acids 32–198); His6 (N, cleaved yes); made in house; host or cells: E. coli BL21(DE3)

SOCS6-EloBC (SBC6) = molecular target: T2, SOCS6-EloBC (SBC6) (Homo sapiens, UniProt O14544); assay: as above; assay type: biochemical; settings: SOCS6 + MN551 (1:1, 40 µM)
T2 construct: SOCS6 (amino acids 353-535); His6-GST (N, cleaved yes); made in house; E. coli implied
From the text: (§1) Having established the specificity of MN551 for covalent modification of Cys111 of SOCS2, we turned our attention to the intra-SOCS family selectivity of MN551. We performed a multiple sequence alignment of the SH2 domains from all the SOCS proteins (Fig. 3a). The Cys111 targeted by MN551 for covalency is part of the EF loop in SOCS2. Beyond SOCS2, other family members SOCS4, SOCS5, SOCS7, and CISH also have a cysteine in the same loop (Fig. 3a), and given the expected conserved ligand binding mode, they could all be engaged by MN551. To verify our hypothesis, we incubated recombinant SOCS/EloBC complexes of SOCS4 (SBC4), SOCS6 (SBC6), and CISH with MN551 for 2 h and analyzed for covalent modification of the SOCS proteins by intact ESI-MS (Fig. 3b–d). These proteins were chosen as SOCS4 and SOCS6 are already structurally well characterized, and because SOCS4 Cys350, and CISH Cys144 are in a similar position as Cys111 in SOCS2, whereas SOCS6 is lacking cysteines in the EF loop[36]–[38]. […] Although SOCS6 lacks a cysteine in its EF loop, Cys471 from the BG loop is predicted to be in close proximity to the chloroacetamide functional group of MN551, as evident from the superposed SOCS2 and SOCS6 structures, potentially explaining the modification, albeit minimal (Fig. 3f). Structure-guided improvements upon this observed MN551-SOCS6 covalency could expedite future attempts in development of covalent binders for SOCS6. In the absence of a PDB structure for CISH, we overlayed SOCS2-SH2 domain with an AlphaFold model generated for the CISH SH2 domain with deletions in the N-terminus and the PEST sequence (66-258, Δ174-202, Fig. 3g). Amongst all the SOCSs, CISH has the highest sequence identity to SOCS2-SH2 and the presence of a conserved Cys144 in the EF loop together likely explain its complete covalent modification by MN551.
(§2) SBC2 protein (40 µM), SBC2 C111S, SBC4, SBC6, or CISH were incubated with an equimolar concentration of MN551 in 50 mM Tris, pH 8.0, 50 mM NaCl, 1 mM TCEP. At defined time points 20 µl samples were removed and the protein precipitated by the addition of 80 µl methanol. The precipitated protein was pelleted by centrifugation, washed with 500 µl methanol, and resuspended in an aqueous solution of 15% acetonitrile and 1% TFA. Samples were separated by HPLC on a C3 column using a 10–75% gradient of acetonitrile and analyzed using an Agilent 6130 quadrupole MS. Spectra were deconvoluted and integrated using Agilent LC/MSD ChemStation.

SOCS4-EloBC (SBC4) = molecular target: T3, SOCS4-EloBC (SBC4) (Homo sapiens, UniProt Q8WXH5); assay: as above; assay type: biochemical; settings: SOCS4 + MN551 (1:1, 40 µM), 0 min
T3 construct: SOCS4 (amino acids 274-437); made in house; E. coli implied
From the text: as §1, §2

CISH-EloBC = molecular target: T4, CISH-EloBC (Homo sapiens, UniProt Q9NSE2, DEL174-202); assay: as above; assay type: biochemical; settings: CISH + MN551 (1:1, 40 µM), 0 min
T4 construct: CISH (66-258 Δ174-202) was codon-optimized for bacterial expression; GST (from pGEX-6P-1); made in house; host or cells: E. coli BL21(DE3)
From the text: as §1, §2

SOCS2 = molecular target: T5, SOCS2 (Homo sapiens, UniProt O14508); assay: SOCS2 pulldown with biotinylated GHR_pY595 peptide from K562 cells pre-treated with compound; assay type: cell-based; settings: K562 cells pre-treated with 10 µM for 6 h
T5 construct: endogenous SOCS2 from K562 lysates; endogenous in cells; host or cells: K562
T5 sequence (O14508 1-198): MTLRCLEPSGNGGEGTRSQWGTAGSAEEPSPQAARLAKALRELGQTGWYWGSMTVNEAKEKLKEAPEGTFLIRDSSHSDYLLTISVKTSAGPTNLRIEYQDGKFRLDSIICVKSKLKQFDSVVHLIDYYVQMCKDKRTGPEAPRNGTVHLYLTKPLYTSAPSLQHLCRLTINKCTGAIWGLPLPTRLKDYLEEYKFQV
Description: Pulldown of cellular SOCS2 was abrogated when K562 cells were pre-treated for 6 h with MN714 prior to cell lysis, further evidencing the inhibitor cell permeability and specific target engagement (Fig. 6c).
K562 cells were treated with either DMSO or 10 µM MN714 for 6 h before being lysed. For experiments with MN551, DMSO-treated lysate was used. DMSO-treated K562 lysate (1 mg/ml) was pre-cleared using control agarose beads (Pierce Control Agarose Resin, 26150) which were washed thrice using 50 mM Tris pH 7.4, 150 mM NaCl buffer. […] Unbound peptide was washed off through 3× cycles of buffer wash and spin. Beads were resuspended to a total volume of 100 µl per IP sample. 100 µl beads with immobilized peptides was added to the MN551 lysate tubes. Samples were incubated for 40 min at room temperature. Samples were spun and unbound supernatant was removed. Beads were washed 3× with 0.05% NP40, 50 mM Tris pH 7.4, 150 mM NaCl buffer before being resuspended in 35 µl 1× LDS. Samples were heated for 10 min at 95 °C after which the elute was transferred to a fresh tube. 20 µl of each sample was analyzed by Western Blot (4-12% Bis-Tris gel 180 V, 60 mins) before blotting for SOCS2 (ab109245, 1:1000 dilution) overnight at 4 °C. Uncropped blot images collected with ChemiDoc Touch imaging system (BioRad) operated by Image Lab (v2.4.0.03) and antibody validation provided in Source Data. […]

Row | Compound | % modified (SOCS2 (SBC2); t = 0 min) | % modified (SOCS2 (SBC2); t = 5 min) | % modified (SOCS2 (SBC2); t = 10 min) | % modified (SOCS2 (SBC2); t = 20 min) | % modified (SOCS2 (SBC2); t = 40 min) | % modified (SOCS2 (SBC2); t = 60 min) | % modified (SOCS2 (SBC2); t = 90 min) | % modified (SOCS2 (SBC2); t = 120 min) | % double-modified (SOCS6-EloBC (SBC6); 0 min) | % modified (single adduct) (SOCS6-EloBC (SBC6); 0 min) | % double-modified (SOCS6-EloBC (SBC6); 120 min) | % modified (single adduct) (SOCS6-EloBC (SBC6); 120 min) | % modified (SOCS4-EloBC (SBC4)) | % modified (CISH-EloBC) | pulldown of cellular SOCS2 with GHR pY595 peptide (SOCS2)
1 | O=C(CCl)Nc1cccc(CNC(=O)[C@H](Cc2ccc(OP(=O)(O)O)cc2)NC(=O)Cc2ccc(F)cc2)c1 [MN551] | 0.0% | 12.6% | 18.9% | 41.4% | 73.7% | 88.0% | 100.0% | 100.0% | 0.0% | 0.0% | 2.6% | 18% and 18.3% | 0.0% | 0.0% | –
2 | CC(C)(C)C(=O)OCOP(=O)(OCOC(=O)C(C)(C)C)Oc1ccc(C[C@H](NC(=O)Cc2ccc(F)cc2)C(=O)NCc2cccc(NC(=O)CCl)c2)cc1 [MN714] | – | – | – | – | – | – | – | – | – | – | – | – | – | – | abrogated; also recorded: effective blockade of SOCS2-GHRpY interaction
